{
  "source": "ChEMBL document CHEMBL5523704",
  "about": "“Exploration of isoxazole analogs: Synthesis, COX inhibition, anticancer screening, 3D multicellular tumor spheroids, and molecular modeling” (Eur J Med Chem, 2024)",
  "key": {"[1]": {"test": "Inhibition of human recombinant COX-1 using arachidonic acid as substrate preincubated for 10 mins followed by substrate addition and measured after 5 mins by ELISA method"}, "[2]": {"biological_target": "T1, Prostaglandin G/H synthase 1 (Bos taurus, UniProt O62664)", "T1 sequence (O62664 whole entry)": "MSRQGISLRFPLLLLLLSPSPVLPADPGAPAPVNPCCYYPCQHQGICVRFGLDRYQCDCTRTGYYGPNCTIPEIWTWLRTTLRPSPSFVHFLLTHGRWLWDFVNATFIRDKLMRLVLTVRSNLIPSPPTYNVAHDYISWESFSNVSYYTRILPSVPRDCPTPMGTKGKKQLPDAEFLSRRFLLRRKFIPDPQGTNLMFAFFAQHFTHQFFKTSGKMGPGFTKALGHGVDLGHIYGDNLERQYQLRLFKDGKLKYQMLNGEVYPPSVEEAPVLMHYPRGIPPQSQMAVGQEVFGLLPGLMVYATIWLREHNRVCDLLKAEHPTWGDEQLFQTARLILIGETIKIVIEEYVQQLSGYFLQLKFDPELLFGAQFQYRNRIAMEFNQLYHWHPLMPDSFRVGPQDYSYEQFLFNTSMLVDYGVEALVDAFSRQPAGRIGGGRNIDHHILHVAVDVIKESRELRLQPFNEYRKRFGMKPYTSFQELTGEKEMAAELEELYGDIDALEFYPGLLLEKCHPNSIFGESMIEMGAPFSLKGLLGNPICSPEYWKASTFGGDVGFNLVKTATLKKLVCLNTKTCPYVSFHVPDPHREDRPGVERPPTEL", "test": "Inhibition of bovine COX-1 using arachidonic acid as substrate preincubated for 10 mins followed by substrate addition and measured after 5 mins by ELISA method"}, "COLO 205": {"tested_on": "COLO 205", "test": "Antiproliferative activity against human COLO 205 cells incubated for 72 hrs by MTS assay", "type": "functional, cell-based", "details": "COLO 205, 72 h"}, "HeLa [3]": {"tested_on": "HeLa", "test": "Antiproliferative activity against human HeLa cells by MTS assay", "type": "functional, cell-based"}, "Hep 3B2 [4]": {"tested_on": "Hep 3B2", "test": "Antiproliferative activity against human Hep3B cells by MTS assay", "type": "functional, cell-based"}, "Huh-7": {"tested_on": "Huh-7", "test": "Antiproliferative activity against human Huh-7 cells incubated for 72 hrs by SRB method", "type": "functional, cell-based", "details": "Huh-7, 72 h"}, "HCT-116": {"tested_on": "HCT-116", "test": "Antiproliferative activity against human HCT-116 cells incubated for 72 hrs by SRB method", "type": "functional, cell-based", "details": "HCT-116, 72 h"}, "MCF7 [5]": {"tested_on": "MCF7", "test": "Antiproliferative activity against human MCF7 cells", "type": "functional, cell-based"}, "Hep 3B2 [6]": {"tested_on": "Hep 3B2", "test": "Antiproliferative activity against human Hep3B cells", "type": "functional, cell-based"}, "HeLa [7]": {"tested_on": "HeLa", "test": "cells", "details": "Homo sapiens, 48 h", "description": "Antiproliferative activity against human HeLa cells assessed as inhibition of cell growth incubated for 48 hrs by CellTiter 96 Aqueous One Solution Cell Proliferation Assay"}, "[8]": {"test": "Antiproliferative activity against HEK293T cells assessed as inhibition of cell growth incubated for 48 hrs by CellTiter 96 Aqueous One Solution Cell Proliferation Assay", "type": "toxicity, cell-based, HEK-293T", "details": "human"}, "MCF7 [9]": {"tested_on": "MCF7", "test": "cells", "details": "Homo sapiens, MCF7, 48 h", "description": "Antiproliferative activity against human MCF7 cells assessed as inhibition of cell growth incubated for 48 hrs by CellTiter 96 Aqueous One Solution Cell Proliferation Assay"}, "Hep 3B2 [10]": {"tested_on": "Hep 3B2", "test": "cells", "details": "Homo sapiens, Hep3B, 48 h", "description": "Antiproliferative activity against human Hep3B cells assessed as inhibition of cell growth incubated for 48 hrs by CellTiter 96 Aqueous One Solution Cell Proliferation Assay"}, "[11]": {"test": "Antiproliferative activity against human LX2 cells assessed as inhibition of cell growth incubated for 48 hrs by CellTiter 96 Aqueous One Solution Cell Proliferation Assay", "type": "toxicity, cell-based", "details": "LX-2 cells"}, "Caco-2": {"tested_on": "Caco-2", "test": "Antiproliferative activity against human Caco-2 cells assessed as inhibition of cell growth incubated for 48 hrs by CellTiter 96 Aqueous One Solution Cell Proliferation Assay", "type": "functional, cell-based", "details": "Caco-2, 48 h"}, "HepG2": {"tested_on": "HepG2", "test": "cells", "details": "Homo sapiens, HepG2, 48 h", "description": "Antiproliferative activity against human HepG2 cells assessed as inhibition of cell growth incubated for 48 hrs by CellTiter 96 Aqueous One Solution Cell Proliferation Assay"}, "[12]": {"biological_target": "T2, Prostaglandin G/H synthase 1 (Ovis aries, UniProt P05979)", "T2 sequence (P05979 whole entry)": "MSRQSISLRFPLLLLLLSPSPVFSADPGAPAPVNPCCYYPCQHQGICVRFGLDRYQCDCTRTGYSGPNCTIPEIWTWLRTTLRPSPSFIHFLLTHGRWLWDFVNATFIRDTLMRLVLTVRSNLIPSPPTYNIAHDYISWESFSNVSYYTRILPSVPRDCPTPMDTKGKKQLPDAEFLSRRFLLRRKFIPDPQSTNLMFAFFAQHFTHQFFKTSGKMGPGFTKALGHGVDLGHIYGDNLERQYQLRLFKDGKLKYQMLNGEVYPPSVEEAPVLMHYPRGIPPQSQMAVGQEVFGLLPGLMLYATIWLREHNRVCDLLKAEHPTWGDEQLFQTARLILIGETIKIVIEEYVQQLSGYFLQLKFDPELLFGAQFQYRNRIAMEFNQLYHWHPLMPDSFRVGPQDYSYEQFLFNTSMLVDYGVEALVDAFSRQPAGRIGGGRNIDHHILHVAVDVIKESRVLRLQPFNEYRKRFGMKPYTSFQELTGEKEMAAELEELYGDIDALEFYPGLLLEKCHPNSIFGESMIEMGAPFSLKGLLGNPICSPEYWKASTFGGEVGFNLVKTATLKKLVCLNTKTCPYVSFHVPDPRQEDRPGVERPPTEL", "description": "Inhibition of ovine COX-1 by EIA method"}},
  "data": [
    {"smiles": "COc1cccc(-c2nc(C(=O)Nc3ccc(C(F)(F)F)cc3)cs2)c1", "values": [
      {"measurement": "IC50", "setting": "[1]", "value": 191, "unit": "nM"},
      {"measurement": "IC50", "setting": "[2]", "value": 239, "unit": "nM"},
      {"measurement": "IC50", "setting": "COLO 205", "value": 30800, "unit": "nM"}
    ]},
    {"smiles": "COc1ccc(NC(=O)c2c(-c3ccccc3Cl)noc2C)cc1OC", "values": [
      {"measurement": "IC50", "setting": "HeLa [3]", "value": 15.5, "unit": "µg/mL"},
      {"measurement": "IC50", "setting": "Hep 3B2 [4]", "value": 24, "unit": "µg/mL"}
    ]},
    {"smiles": "COc1ccc(-c2nc(C(=O)Nc3cc(OC)c(OC)c(OC)c3)cs2)cc1", "values": [
      {"measurement": "IC50", "setting": "Huh-7", "value": 17500, "unit": "nM"},
      {"measurement": "IC50", "setting": "HCT-116", "value": 14600, "unit": "nM"}
    ]},
    {"smiles": "Cc1onc(-c2c(F)cccc2Cl)c1C(=O)Nc1ccc(C(C)(C)C)cc1", "values": [
      {"measurement": "IC50", "setting": "MCF7 [5]", "value": 9.31, "unit": "µg/mL"},
      {"measurement": "IC50", "setting": "Hep 3B2 [6]", "value": 2.77, "unit": "µg/mL"}
    ]},
    {"smiles": "COc1cccc2c1C(=O)c1c(O)c3c(c(O)c1C2=O)C[C@@](O)(C(=O)CO)C[C@@H]3O[C@H]1C[C@H](N)[C@H](O)[C@H](C)O1", "note": "[DOXORUBICIN]", "values": [
      {"measurement": "IC50", "setting": "HeLa [7]", "value": "< 10", "unit": "nM"},
      {"measurement": "IC50 at 48 h", "setting": "[8]", "value": 38, "unit": "nM"},
      {"measurement": "IC50", "setting": "MCF7 [9]", "value": 53, "unit": "nM"},
      {"measurement": "IC50", "setting": "Hep 3B2 [10]", "value": 25, "unit": "nM"},
      {"measurement": "IC50 at 48 h", "setting": "[11]", "value": 210, "unit": "nM"},
      {"measurement": "IC50", "setting": "Caco-2", "value": 24, "unit": "nM"}
    ]},
    {"smiles": "O=c1[nH]cc(F)c(=O)[nH]1", "note": "[FLUOROURACIL]", "values": [
      {"measurement": "IC50", "setting": "HeLa [7]", "value": 7790, "unit": "nM"},
      {"measurement": "IC50 at 48 h", "setting": "[8]", "value": 4070, "unit": "nM"},
      {"measurement": "IC50", "setting": "MCF7 [9]", "value": 6510, "unit": "nM"},
      {"measurement": "IC50", "setting": "HepG2", "value": 4070, "unit": "nM"},
      {"measurement": "IC50", "setting": "Hep 3B2 [10]", "value": 5110, "unit": "nM"},
      {"measurement": "IC50 at 48 h", "setting": "[11]", "value": 178, "unit": "nM"},
      {"measurement": "IC50", "setting": "Caco-2", "value": 4750, "unit": "nM"}
    ]},
    {"smiles": "CC(C(=O)O)c1cccc(C(=O)c2ccccc2)c1", "note": "(stereo not drawn) [KETOPROFEN]", "values": [
      {"measurement": "IC50", "setting": "[12]", "value": 35, "unit": "nM"}
    ]}
  ]
}
